# Source: patent US10689362B2, “Quinoxaline compounds as type III receptor tyrosine kinase inhibitors” (Development Center for Biotechnology, priority 2016, dated 2020)
# Tests used:
# CSF-1R kinase = CSF-1R kinase (Homo sapiens (Human), UniProt P07333); assay: CSF-1R kinase assay (AlphaScreen); type: biochemical; settings: class symbol
# Experimental: Inhibition of CSF-1R kinase activity by a test compound disclosed herein was estimated by AlphaScreen (PerkinElmer). […] Reactions were incubated at 30° C. for 45 min and stopped by adding 5 μL of 50 mM EDTA. Analysis of resulting product using an AlphaScreen kit, and counted with Enspire Alpha (PerkinElmer). […] The IC50 values of quinoxaline compounds of this invention against CSF-1R kinase were determined using the GraphPad Prism 5 software.
# c-KIT kinase = c-KIT kinase (Homo sapiens (Human), UniProt P10721); assay: c-KIT kinase assay (radiometric); type: biochemical
# Method in brief: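 Recombinant c-Kit (20 ng) with 2 μg Poly-(Glu4:Tyr1) in MOPS pH 7.0 buffer with MgCl2/MnCl2, 10 μM ATP plus [^33P]-ATP, 4% DMSO final, 60 min at 30° C. Stopped with phosphoric acid, filter-captured and scintillation counted; IC50 from curve fit.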
# FLT3 kinase = FLT3 kinase (Homo sapiens (Human), UniProt P36888); assay: FLT3 kinase assay (radiometric); type: biochemical; settings: bound
# Method in brief: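 Recombinant FLT3 (5 ng) phosphorylating poly(Glu4:Tyr1) (2 μg) with 10 μM ATP plus [^33P]-ATP in MOPS pH 7.0 buffer, 4% DMSO final, 60 min at 30° C. Reaction stopped with phosphoric acid, filter-captured and scintillation-counted; IC50 derived from dose-response.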
# PDGFRβ kinase = PDGFRβ kinase (Homo sapiens (Human), UniProt P09619); assay: PDGFRβ kinase assay (radiometric); type: biochemical; settings: bound
# Method in brief: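 Radiometric assay: recombinant PDGFRβ with poly(Glu4:Tyr1) in MOPS pH 7.0 buffer containing Mg2+/Mn2+, 10 μM ATP plus [33P]-ATP, and compound at 4% DMSO final. Incubated 60 min at 30° C, stopped with phosphoric acid, filter-captured and scintillation-counted. IC50 from curve fitting.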
# [1] = system: CSF-1-dependent M-NFS-60 mouse myeloid leukemia cell; assay: M-NFS-60 cell proliferation assay (CellTiter-96); type: cell-based; settings: Cytotoxicity, M-NFS-60 cells, 72 hours
# Method in brief: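 CSF-1-dependent M-NFS-60 cells seeded at 2000 cells/well, settled overnight at 37 °C, 5% CO2, then exposed to increasing compound concentrations for 72 h. Viability read by CellTiter 96 AQueous One reagent (4 h) at 490 nm absorbance.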
# [2] = system: MV4-11 human acute myeloid leukemia cell with FLT3-ITD mutation; assay: MV4-11 cell proliferation assay (CellTiter-96); type: cell-based; settings: Cytotoxicity, MV4-11 cells, 72 hours
# Method in brief: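 MV4-11 cells (FLT3-ITD, FLT3-dependent growth) seeded at 6500 cells/well, incubated overnight at 37° C., 5% CO2, then exposed to increasing compound concentrations for 72 hours. Viability read by CellTiter96 AQueous One reagent (4 hours), absorbance at 490 nm.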
# [3] = system: Kasumi-1 human acute myeloid leukemia cell with c-KIT N822K activating mutation; assay: Kasumi-1 cell proliferation assay (CellTiter-96); type: cell-based; settings: Cytotoxicity, Kasumi-1 cells, 72 hours
# Method in brief: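 Kasumi-1 cells, seeded at 64000 cells/well and incubated overnight at 37 °C, were exposed to increasing compound concentrations for 72 h. Viability was measured by CellTiter96 AQueous One reagent (4 h) and absorbance at 490 nm.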
# [4] = system: THP-1 human acute monocytic leukemia cell harboring NRAS G12D mutation; assay: THP-1 cell proliferation assay (counter screen, CellTiter-96); type: cell-based; settings: Cytotoxicity, THP-1 cells (counter screen), 72 hours
# Method in brief: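 THP-1 cells, RTK-independent owing to NRAS G12D, seeded at 5000/well, incubated overnight at 37 °C/5% CO2, then exposed to increasing compound concentrations for 72 h. CellTiter96 AQueous One reagent added for 4 h; viability from absorbance at 490 nm.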
# [5] = system: osteoclast precursors (osteoclast differentiation); assay: Osteoclast tartrate-resistant acid phosphatase assay; type: cell-based; settings: 168 h, at 1 μM treatment, 7 days, RANKL and M-CSF, read-out: inhibition activity against osteoclast differentiation
# Method in brief: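 Differentiation inhibition was scored at 1 μM compound in duplicate, using supernatant TRAP activity read at 550 nm with an acid phosphatase kit.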
# FLT3 kinase, sequence (P36888 27-993): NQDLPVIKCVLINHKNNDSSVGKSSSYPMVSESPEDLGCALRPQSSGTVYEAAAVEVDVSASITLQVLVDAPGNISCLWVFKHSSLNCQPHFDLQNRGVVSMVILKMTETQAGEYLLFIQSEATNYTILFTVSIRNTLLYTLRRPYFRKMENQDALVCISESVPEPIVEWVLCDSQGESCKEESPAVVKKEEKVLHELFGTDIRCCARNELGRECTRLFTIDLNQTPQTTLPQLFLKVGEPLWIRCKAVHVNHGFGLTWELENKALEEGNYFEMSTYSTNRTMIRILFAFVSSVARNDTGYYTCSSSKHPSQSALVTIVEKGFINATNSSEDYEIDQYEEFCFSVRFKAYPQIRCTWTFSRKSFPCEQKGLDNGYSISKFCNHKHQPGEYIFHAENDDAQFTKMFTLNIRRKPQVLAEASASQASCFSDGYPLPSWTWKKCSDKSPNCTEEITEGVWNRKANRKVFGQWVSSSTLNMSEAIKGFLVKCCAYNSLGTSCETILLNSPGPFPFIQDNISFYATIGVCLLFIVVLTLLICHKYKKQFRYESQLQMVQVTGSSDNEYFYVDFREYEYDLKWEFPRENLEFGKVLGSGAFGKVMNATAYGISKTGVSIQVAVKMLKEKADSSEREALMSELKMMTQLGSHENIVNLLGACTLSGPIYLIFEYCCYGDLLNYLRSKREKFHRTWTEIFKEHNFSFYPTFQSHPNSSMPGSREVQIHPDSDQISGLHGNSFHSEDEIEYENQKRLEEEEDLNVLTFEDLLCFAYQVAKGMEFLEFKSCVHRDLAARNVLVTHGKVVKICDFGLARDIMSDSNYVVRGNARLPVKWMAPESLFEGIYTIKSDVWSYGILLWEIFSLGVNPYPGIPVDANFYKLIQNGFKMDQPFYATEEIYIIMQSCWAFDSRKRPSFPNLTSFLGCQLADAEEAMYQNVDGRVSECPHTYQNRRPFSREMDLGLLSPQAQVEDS
# c-KIT kinase, sequence (P10721 26-976): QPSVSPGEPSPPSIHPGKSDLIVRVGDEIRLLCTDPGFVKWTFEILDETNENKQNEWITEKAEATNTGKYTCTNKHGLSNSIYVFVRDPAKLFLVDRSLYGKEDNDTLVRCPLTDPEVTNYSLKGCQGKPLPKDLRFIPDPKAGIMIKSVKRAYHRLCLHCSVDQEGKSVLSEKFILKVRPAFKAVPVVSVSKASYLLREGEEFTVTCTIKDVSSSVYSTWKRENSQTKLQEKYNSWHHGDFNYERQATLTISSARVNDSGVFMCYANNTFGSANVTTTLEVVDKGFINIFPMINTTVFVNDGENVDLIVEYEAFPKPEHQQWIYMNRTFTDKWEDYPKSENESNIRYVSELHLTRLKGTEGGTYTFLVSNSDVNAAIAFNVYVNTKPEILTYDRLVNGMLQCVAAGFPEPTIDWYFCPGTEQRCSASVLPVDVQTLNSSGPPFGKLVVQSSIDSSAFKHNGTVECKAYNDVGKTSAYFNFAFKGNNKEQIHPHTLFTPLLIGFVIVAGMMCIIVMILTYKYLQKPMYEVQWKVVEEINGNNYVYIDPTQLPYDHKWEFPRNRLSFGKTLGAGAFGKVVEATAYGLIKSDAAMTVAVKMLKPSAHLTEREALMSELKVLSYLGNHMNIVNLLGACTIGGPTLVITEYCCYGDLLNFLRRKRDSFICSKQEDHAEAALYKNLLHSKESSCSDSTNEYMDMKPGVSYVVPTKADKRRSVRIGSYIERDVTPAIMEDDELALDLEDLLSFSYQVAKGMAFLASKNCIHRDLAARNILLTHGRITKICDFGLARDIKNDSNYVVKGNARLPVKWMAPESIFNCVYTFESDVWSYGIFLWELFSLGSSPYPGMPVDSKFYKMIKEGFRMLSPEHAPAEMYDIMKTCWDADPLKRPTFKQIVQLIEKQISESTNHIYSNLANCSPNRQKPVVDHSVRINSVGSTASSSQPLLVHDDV
# CSF-1R kinase, sequence (P07333 20-972): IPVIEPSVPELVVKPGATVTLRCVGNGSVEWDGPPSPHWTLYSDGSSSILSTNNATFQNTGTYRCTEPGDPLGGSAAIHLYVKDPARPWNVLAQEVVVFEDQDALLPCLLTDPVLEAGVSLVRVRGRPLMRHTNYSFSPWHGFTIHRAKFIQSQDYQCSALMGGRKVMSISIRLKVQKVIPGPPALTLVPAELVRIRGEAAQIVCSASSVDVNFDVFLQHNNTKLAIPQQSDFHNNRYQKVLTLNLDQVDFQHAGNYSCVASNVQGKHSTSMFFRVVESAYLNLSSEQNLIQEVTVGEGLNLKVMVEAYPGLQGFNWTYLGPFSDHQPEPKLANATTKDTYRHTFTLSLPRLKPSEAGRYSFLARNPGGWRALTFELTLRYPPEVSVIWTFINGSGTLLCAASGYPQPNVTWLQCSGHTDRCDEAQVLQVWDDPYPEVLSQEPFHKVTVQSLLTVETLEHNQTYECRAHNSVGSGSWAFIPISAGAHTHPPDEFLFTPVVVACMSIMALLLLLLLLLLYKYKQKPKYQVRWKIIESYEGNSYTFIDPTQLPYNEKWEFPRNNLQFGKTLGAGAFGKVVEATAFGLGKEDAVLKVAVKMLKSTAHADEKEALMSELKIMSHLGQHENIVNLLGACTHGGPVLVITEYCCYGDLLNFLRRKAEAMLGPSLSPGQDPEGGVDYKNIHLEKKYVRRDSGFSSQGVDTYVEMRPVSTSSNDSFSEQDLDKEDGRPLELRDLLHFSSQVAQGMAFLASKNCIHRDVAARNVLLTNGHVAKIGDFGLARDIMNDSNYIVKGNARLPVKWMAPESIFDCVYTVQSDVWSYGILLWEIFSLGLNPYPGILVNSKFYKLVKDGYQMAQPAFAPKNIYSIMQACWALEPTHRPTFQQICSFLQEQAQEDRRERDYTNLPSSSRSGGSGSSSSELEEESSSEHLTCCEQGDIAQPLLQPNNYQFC
# PDGFRβ kinase, sequence (P09619 33-1106): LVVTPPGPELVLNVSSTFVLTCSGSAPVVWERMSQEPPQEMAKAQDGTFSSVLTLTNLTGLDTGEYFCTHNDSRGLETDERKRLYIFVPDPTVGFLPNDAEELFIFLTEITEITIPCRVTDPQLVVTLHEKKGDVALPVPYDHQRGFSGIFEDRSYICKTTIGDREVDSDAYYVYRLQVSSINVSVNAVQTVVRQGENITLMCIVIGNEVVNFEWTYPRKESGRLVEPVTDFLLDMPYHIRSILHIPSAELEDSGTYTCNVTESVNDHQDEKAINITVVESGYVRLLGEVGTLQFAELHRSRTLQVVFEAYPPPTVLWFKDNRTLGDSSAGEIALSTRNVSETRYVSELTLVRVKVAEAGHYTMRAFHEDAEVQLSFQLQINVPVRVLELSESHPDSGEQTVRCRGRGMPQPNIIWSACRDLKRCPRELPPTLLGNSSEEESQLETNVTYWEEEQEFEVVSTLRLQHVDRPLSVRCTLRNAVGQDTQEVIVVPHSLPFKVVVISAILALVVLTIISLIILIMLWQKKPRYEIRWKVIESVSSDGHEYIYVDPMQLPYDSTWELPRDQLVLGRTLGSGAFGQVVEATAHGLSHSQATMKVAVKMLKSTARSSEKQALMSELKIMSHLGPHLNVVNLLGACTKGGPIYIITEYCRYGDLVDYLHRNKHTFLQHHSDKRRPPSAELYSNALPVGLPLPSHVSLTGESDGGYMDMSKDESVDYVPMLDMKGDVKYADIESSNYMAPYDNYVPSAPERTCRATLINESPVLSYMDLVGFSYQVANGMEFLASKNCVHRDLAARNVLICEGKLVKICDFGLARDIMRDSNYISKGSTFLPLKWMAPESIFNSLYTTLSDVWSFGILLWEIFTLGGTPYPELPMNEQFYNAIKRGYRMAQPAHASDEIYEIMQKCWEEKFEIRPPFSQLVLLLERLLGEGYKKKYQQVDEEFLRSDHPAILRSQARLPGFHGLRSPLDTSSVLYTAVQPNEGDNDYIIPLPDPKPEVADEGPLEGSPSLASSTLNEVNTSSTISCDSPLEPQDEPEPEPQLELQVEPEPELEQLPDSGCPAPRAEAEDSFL
Structure (SMILES),IC50 (CSF-1R kinase) [nM],IC50 (c-KIT kinase; class symbol) [nM],IC50 (FLT3 kinase) [nM],IC50 (PDGFRβ kinase) [nM],IC50 (c-KIT kinase; bound) [nM],IC50 [1] [nM],IC50 [2] [nM],IC50 [3] [nM],IC50 [4] [nM],inhibition at 1 µM [5] [%]
"COCCN1CCN(c2cnc3ccc(Nc4ccc(OCc5ccc(C)nc5)c(OC)c4)c(C#N)c3n2)CC1 [Example 100, 6-((3-methoxy-4-((6-methylpyridin-3-yl)methoxy)phenyl)amino)-3-(4-(2-methoxyethyl)piperazin-1-yl)quinoxaline-5-carbonitrile]",< 100,100 to 300,> 1000,> 1000,–,< 300,1000 to 10000,300 to 1000,> 10000,> 50
"C=C(C)c1cnc2ccc(Nc3ccc(OCc4ccc(OC)cc4)c(OC)c3)cc2n1 [Example 106, N-(3-methoxy-4-((4-methoxybenzyl)oxy)phenyl)-3-(prop-1-en-2-yl)quinoxalin-6-amine]",< 100,300 to 1000,> 1000,> 1000,–,300 to 1000,> 10000,1000 to 10000,> 10000,> 50
"C=C(C)c1cnc2ccc(Nc3ccc(OCc4ccc(OC)cc4)c(OC)c3)c(C#N)c2n1 [Example 108, 6-((3-methoxy-4-((4-methoxybenzyl)oxy)phenyl)amino)-3-(prop-1-en-2-yl)quinoxaline-5-carbonitrile]",< 100,–,> 1000,> 1000,> 1000,1000 to 10000,> 10000,> 10000,> 10000,> 50
"COc1ccc(COc2ccc(Nc3ccc4ncc(C(C)C)nc4c3C#N)cc2OC)cc1 [Example 109, 3-isopropyl-6-((3-methoxy-4-((4-methoxybenzyl)oxy)phenyl)amino)quinoxaline-5-carbonitrile]",< 100,–,> 1000,> 1000,> 1000,1000 to 10000,> 10000,1000 to 10000,> 10000,> 50
"COc1cc(Nc2ccc3ncc(C4=CCOCC4)nc3c2C#N)ccc1OCc1ccc(C)nc1 [Example 113, 3-(3,6-dihydro-2H-pyran-4-yl)-6-((3-methoxy-4-((6-methylpyridin-3-yl)methoxy)phenyl)amino)quinoxaline-5-carbonitrile]",< 100,< 100,> 1000,> 1000,–,< 300,1000 to 10000,300 to 1000,> 10000,> 50
"COc1cc(Nc2ccc3ncc(C4CCOCC4)nc3c2C#N)ccc1OCc1ccc(C)nc1 [Example 114, 6-((3-methoxy-4-((6-methylpyridin-3-yl)methoxy)phenyl)amino)-3-(tetrahydro-2H-pyran-4-yl)quinoxaline-5-carbonitrile]",< 100,300 to 1000,> 1000,> 1000,–,1000 to 10000,1000 to 10000,1000 to 10000,> 10000,> 50

# Continued, in another order:
IC50 (CSF-1R kinase) [nM],IC50 (c-KIT kinase; class symbol) [nM],IC50 (FLT3 kinase) [nM],IC50 (PDGFRβ kinase) [nM],IC50 (c-KIT kinase; bound) [nM],Structure (SMILES),IC50 [1] [nM],IC50 [2] [nM],IC50 [3] [nM],IC50 [4] [nM],inhibition at 1 µM [5] [%]
< 100,< 100,> 1000,> 1000,–,"CCc1ccc(COc2ccc(Nc3ccc4ncc(N5CCOCC5)nc4c3C#N)cc2OC)cn1 [Example 101, 6-((4-((6-ethylpyridin-3-yl)methoxy)-3-methoxyphenyl)amino)-3-morpholinoquinoxaline-5-carbonitrile]",< 300,1000 to 10000,< 300,> 10000,> 50
< 100,100 to 300,> 1000,> 1000,–,"COc1ccc(COc2ccc(Nc3ccc4ncc(N5CCC(N6CCOCC6)CC5)nc4c3C#N)cc2OC)cn1 [Example 102, 6-((3-methoxy-4-((6-methoxypyridin-3-yl)methoxy)phenyl)amino)-3-(4-morpholinopiperidin-1-yl)quinoxaline-5-carbonitrile]",< 300,> 10000,< 300,> 10000,> 50
< 100,< 100,> 1000,> 1000,–,"COc1cc(Nc2ccc3ncc(N4CCOCC4)nc3c2C#N)ccc1OCc1ccc(C(C)C)nc1 [Example 103, 6-((4-((6-isopropylpyridin-3-yl)methoxy)-3-methoxyphenyl)amino)-3-morpholinoquinoxaline-5-carbonitrile]",< 300,1000 to 10000,< 300,> 10000,> 50
< 100,< 100,> 1000,> 1000,–,"COc1cc(Nc2ccc3ncc(N4CCOCC4)nc3c2C#N)ccc1OCc1cnn(C)c1 [Example 105, 6-((3-methoxy-4-((1-methyl-1H-pyrazol-4-yl)methoxy)phenyl)amino)-3-morpholinoquinoxaline-5-carbonitrile]",< 300,1000 to 10000,300 to 1000,> 10000,> 50
< 100,100 to 300,> 1000,> 1000,–,"COCc1ccc(COc2ccc(Nc3ccc4ncc(N5CCOCC5)nc4c3C#N)cc2OC)cn1 [Example 107, 6-((3-methoxy-4-((6-(methoxymethyl)pyridin-3-yl)methoxy)phenyl)amino)-3-morpholinoquinoxaline-5-carbonitrile]",< 300,1000 to 10000,300 to 1000,> 10000,> 50
< 100,100 to 300,> 1000,> 1000,–,"COc1cc(Nc2ccc3ncc(N4CCOCC4)nc3c2C#N)ccc1OCc1ccc(CF)nc1 [Example 110, 6-((4-((6-(fluoromethyl)pyridin-3-yl)methoxy)-3-methoxyphenyl)amino)-3-morpholinoquinoxaline-5-carbonitrile]",< 300,1000 to 10000,1000 to 10000,> 10000,> 50
< 100,100 to 300,> 1000,> 1000,–,"COc1cc(Nc2ccc3ncc(N4CCOCC4)nc3c2C#N)ccc1OCc1ccc(C(F)F)nc1 [Example 111, 6-((4-((6-(difluoromethyl)pyridin-3-yl)methoxy)-3-methoxyphenyl)amino)-3-morpholinoquinoxaline-5-carbonitrile]",< 300,1000 to 10000,300 to 1000,> 10000,> 50
< 100,< 100,> 1000,> 1000,–,"CCOc1ccc(COc2ccc(Nc3ccc4ncc(N5CCOCC5)nc4c3C#N)cc2OC)cn1 [Example 112, 6-((4-((6-ethoxypyridin-3-yl)methoxy)-3-methoxyphenyl)amino)-3-morpholinoquinoxaline-5-carbonitrile]",< 300,1000 to 10000,< 300,> 10000,> 50
< 100,300 to 1000,> 1000,> 1000,–,"COc1cc(Nc2ccc3ncc(N4CCOCC4)nc3c2C#N)ccc1OCc1ccc(CN(C)C)nc1 [Example 115, 6-((4-((6-((dimethylamino)methyl)pyridin-3-yl)methoxy)-3-methoxyphenyl)amino)-3-morpholinoquinoxaline-5-carbonitrile]",< 300,1000 to 10000,1000 to 10000,> 10000,> 50
